Laboratory results: ChEMBL document CHEMBL5608163, “Structure modification of anoplin for fighting resistant bacteria” (Eur J Med Chem, 2024)
Values after ≈ are worked out from the molar mass of the structure shown. Values belong to the compound of their own block, whether it stands above or below them. Bridge positions count the residues as written; N and C are the ends. Square brackets hold non-standard residues; d marks the D form. Triazole bridges read from a SMILES are 1,4-linked. Peptide text beside a SMILES is read from it. I, II: the chains in the order shown. Lys(N3) = [N-]=[N+]=NCCCC[C@H](N)C(=O)O; Pra = C#CC[C@H](N)C(=O)O

Legend:
Staphylococcus aureus [1] = experiment: Antibacterial activity against Staphylococcus aureus ATCC 25923 assessed as reduction in bacterial growth incubated for 18 to 24 hrs by broth microdilution method; format: functional; conditions: time 18-24 hrs
[2] = Hemolytic activity in human RBC; format: toxicity, cell-based, Erythrocyte; conditions: red blood cells
[3] = test system: Staphylococcus epidermidis; experiment: Antibacterial activity against Staphylococcus epidermidis assessed as reduction in microbial growth; format: functional
Escherichia coli [4] = experiment: Antibacterial activity against Escherichia coli ATCC 25922 assessed as reduction in bacterial growth by broth microdilution method; format: functional
Bacillus subtilis [5] = experiment: Antibacterial activity against Bacillus subtilis assessed as reduction in microbial growth; format: functional
Klebsiella pneumoniae [6] = experiment: Antibacterial activity against Klebsiella pneumoniae; format: functional
Enterococcus faecalis = experiment: Antibacterial activity against Enterococcus faecalis assessed as reduction in microbial growth; format: functional
Pseudomonas aeruginosa [7] = experiment: Antibacterial activity against Pseudomonas aeruginosa ATCC 15442 assessed as growth inhibition; format: functional
Acinetobacter baumannii [8] = experiment: Antibacterial activity against Acinetobacter baumannii assessed as bacterial growth inhibition; format: functional
Acinetobacter baumannii [9] = experiment: Antibacterial activity against multi-drug resistant Acinetobacter baumannii clinical isolate 9840 assessed as reduction in bacterial growth measured after 18 to 24 hrs by CLSI protocol-based Mueller-Hinton broth dilution method; format: functional; conditions: time 18-24 hrs
Bacillus subtilis [10] = experiment: Antibacterial activity against Bacillus subtilis ATCC 23857 assessed as reduction in bacterial growth measured after 18 to 24 hrs by CLSI protocol-based Mueller-Hinton broth dilution method; format: functional; conditions: time 18-24 hrs
Staphylococcus aureus [11] = experiment: Antibacterial activity against Staphylococcus aureus ATCC 25923 assessed as reduction in bacterial growth measured after 18 to 24 hrs by CLSI protocol-based Mueller-Hinton broth dilution method; format: functional; conditions: time 18-24 hrs
Escherichia coli [12] = experiment: Antibacterial activity against multi-drug resistant Escherichia coli clinical isolate 850 assessed as reduction in bacterial growth measured after 18 to 24 hrs by CLSI protocol-based Mueller-Hinton broth dilution method; format: functional; conditions: time 18-24 hrs
Pseudomonas aeruginosa [13] = experiment: Antibacterial activity against multi-drug resistant Pseudomonas aeruginosa clinical isolate 119 assessed as reduction in bacterial growth measured after 18 to 24 hrs by CLSI protocol-based Mueller-Hinton broth dilution method; format: functional; conditions: time 18-24 hrs
Staphylococcus aureus [14] = experiment: Antibacterial activity against Staphylococcus aureus ATCC 25923 assessed as bacterial growth inhibition measured for 18 hrs by CLSI-protocol based Mueller-Hinton Broth micro-dilution assay; format: functional
Staphylococcus aureus [15] = experiment: Antibacterial activity against Methicillin-resistant Staphylococcus aureus 936 assessed as bacterial growth inhibition measured for 18 hrs by CLSI-protocol based Mueller-Hinton Broth micro-dilution assay; format: functional
Klebsiella pneumoniae [16] = experiment: Antibacterial activity against Klebsiella pneumoniae ATCC 700603 assessed as reduction in bacterial growth measured after 18 to 24 hrs by CLSI protocol-based Mueller-Hinton broth dilution method; format: functional; conditions: time 18-24 hrs
Escherichia coli [17] = experiment: Antibacterial activity against Escherichia coli ATCC 25922 assessed as bacterial growth inhibition measured after 48 hrs by resazurin assay; format: functional
Pseudomonas aeruginosa [18] = experiment: Antibacterial activity against Pseudomonas aeruginosa ATCC 27853 assessed as reduction in bacterial growth by broth microdilution method; format: functional
Staphylococcus aureus [19] = experiment: Antibacterial activity against Staphylococcus aureus ATCC 25923 assessed as reduction in bacterial growth incubated for 24 hrs by serial dilution method; format: functional
[20] = Hemolytic activity in human RBC assessed as hemolysis; format: toxicity, cell-based, Erythrocyte; conditions: red blood cells
Enterococcus faecium = experiment: Antibacterial activity against Enterococcus faecium ATCC 700221 assessed as reduction in bacterial cell growth by CLSI broth microdilution method; format: functional
Erythrocyte = experiment: Hemolytic activity in human red blood cells; format: toxicity, cell-based; conditions: erythrocyte
Escherichia coli [21] = experiment: Antibacterial activity against Escherichia coli ATCC 25922 assessed as reduction in bacterial growth measured after 18 hrs by CLSI protocol-based Mueller-Hinton broth dilution method; format: functional
Bacillus subtilis [22] = experiment: Antibacterial activity against Bacillus subtilis ATCC 23857 assessed as reduction in bacterial growth measured after 18 hrs by CLSI protocol-based Mueller-Hinton broth dilution method; format: functional
Pseudomonas aeruginosa [23] = experiment: Antibacterial activity against Pseudomonas aeruginosa ATCC 27853 assessed as reduction in bacterial growth measured after 18 hrs by CLSI protocol-based Mueller-Hinton broth dilution method; format: functional
Staphylococcus aureus [24] = experiment: Antibacterial activity against Staphylococcus aureus ATCC 25923 assessed as reduction in bacterial growth measured after 18 hrs by CLSI protocol-based Mueller-Hinton broth dilution method; format: functional

Compound: CC[C@H](C)[C@H](NC(=O)[C@H](CCCNC(=N)N)NC(=O)[C@@H](CCCCN)NC(=O)[C@H](CC(C)C)NC(=O)[C@H](CC(C)C)NC(=O)CNC(C)=O)C(=O)N[C@H](CCCCN)C(=O)N[C@H](C(=O)N[C@@H](CC(C)C)C(=O)N[C@@H](CC(C)C)C(=O)NC(Cc1cn(CCCC[C@H](NC(=O)[C@H](CC(C)C)NC(=O)[C@H](CC(C)C)NC(=O)[C@@H](NC(=O)[C@@H](CCCCN)NC(=O)[C@@H](NC(=O)[C@H](CCCNC(=N)N)NC(=O)[C@@H](CCCCN)NC(=O)[C@H](CC(C)C)NC(=O)[C@H](CC(C)C)NC(=O)CNC(C)=O)[C@@H](C)CC)[C@@H](C)O)C(N)=O)nn1)C(N)=O)[C@@H](C)O (some centres not stated)
MIC (Acinetobacter baumannii [9]): 4 µM (≈ 10.6 µg/mL) | MIC (Bacillus subtilis [10]): 4 µM (≈ 10.6 µg/mL) | MIC (Staphylococcus aureus [11]): 128 µM (≈ 338 µg/mL) | MIC (Escherichia coli [12]): 16 µM (≈ 42.2 µg/mL) | MIC (Pseudomonas aeruginosa [13]): 16 µM (≈ 42.2 µg/mL) | MIC (Staphylococcus aureus [14]): 128 µM (≈ 338 µg/mL) | MIC (Staphylococcus aureus [15]): 128 µM (≈ 338 µg/mL) | MIC (Klebsiella pneumoniae [16]): 64 µM (≈ 169 µg/mL)

Compound: CC[C@H](C)[C@H](NC(=O)[C@H](CCCNC(=N)N)NC(=O)[C@H](CCCCN)NC(=O)[C@H](CC(C)C)NC(=O)[C@H](CC(C)C)NC(=O)CNC(=O)[C@H](Cc1cn(CCCC[C@H](NC(C)=O)C(=O)N[C@@H](CCCNC(=N)N)C(=O)N[C@@H](CCCNC(=N)N)C(=O)N[C@@H](Cc2c[nH]c3ccccc23)C(=O)N[C@@H](Cc2c[nH]c3ccccc23)C(=O)N[C@@H](CCCNC(=N)N)C(=O)N[C@@H](Cc2ccccc2)C(N)=O)nn1)NC(C)=O)C(=O)N[C@@H](CCCCN)C(=O)N[C@H](C(=O)N[C@@H](CC(C)C)C(=O)N[C@@H](CC(C)C)C(N)=O)[C@@H](C)O (I: Ac-[Pra]GLLKRIKTLL-NH2 / II: Ac-[Lys(N3)]RRWWRF-NH2; triazole I:1-II:1)
HC10 (Erythrocyte): > 150 µM | MIC (Escherichia coli [21]): 8 µM (≈ 19.9 µg/mL) | MIC (Bacillus subtilis [22]): 4 µM (≈ 9.97 µg/mL) | MIC (Pseudomonas aeruginosa [23]): 16 µM (≈ 39.9 µg/mL) | MIC (Staphylococcus aureus [24]): 4 µM (≈ 9.97 µg/mL)

Now from value to compound, other results behind:

MIC (Staphylococcus aureus [1]): 43.2 µM (≈ 48 µg/mL) | MIC [3]: 64 µM | MIC (Escherichia coli [4]): 43.2 µM (≈ 48 µg/mL) | MIC (Bacillus subtilis [5]): 32 µM | MIC (Klebsiella pneumoniae [6]): 256 µM (≈ 285 µg/mL) | MIC (Enterococcus faecalis): ≥ 512 µM | MIC (Pseudomonas aeruginosa [7]): 64 µM (≈ 71.1 µg/mL) | MIC (Acinetobacter baumannii [8]): ≥ 512 µM
Compound: CC[C@H](C)[C@H](NC(=O)[C@H](CCCNC(=N)N)NC(=O)[C@H](CCCCN)NC(=O)[C@H](CC(C)C)NC(=O)[C@H](CC(C)C)NC(=O)CN)C(=O)N[C@@H](CCCCN)C(=O)N[C@H](C(=O)N[C@@H](CC(C)C)C(=O)N[C@@H](C)C(N)=O)[C@@H](C)O (H-GLLKRIKTLA-NH2)
HC50 [2]: ≥ 512 µM

MIC (Escherichia coli [17]): 8.5 µM (≈ 10 µg/mL) | MIC (Pseudomonas aeruginosa [18]): 28.4 µM (≈ 33.5 µg/mL) | MIC (Staphylococcus aureus [19]): 4.2 µM (≈ 4.96 µg/mL) | MIC (Enterococcus faecium): 66.3 µM (≈ 78.3 µg/mL)
Compound: CC[C@H](C)[C@H](NC(=O)[C@H](CCCNC(=N)N)NC(=O)[C@H](CCCCN)NC(=O)[C@H](CC(C)C)NC(=O)[C@H](CC(C)C)NC(=O)CN)C(=O)N[C@@H](CCCCN)C(=O)N[C@@H](CCCCN)C(=O)N[C@@H](CC(C)C)C(=O)N[C@@H](CC(C)C)C(N)=O (H-GLLKRIKKLL-NH2)
HC50 [20]: > 312 µM

MIC (Escherichia coli [21]): 4 µM (≈ 10.6 µg/mL) | MIC (Bacillus subtilis [22]): 2 µM (≈ 5.28 µg/mL) | MIC (Pseudomonas aeruginosa [23]): 16 µM (≈ 42.2 µg/mL) | MIC (Staphylococcus aureus [24]): 8 µM (≈ 21.1 µg/mL)
Compound: CC[C@H](C)[C@H](NC(=O)[C@H](CCCNC(=N)N)NC(=O)[C@H](CCCCN)NC(=O)[C@H](CC(C)C)NC(=O)[C@H](CC(C)C)NC(=O)CNC(=O)[C@H](CCCCn1cc(C[C@H](NC(C)=O)C(=O)NCC(=O)N[C@@H](CC(C)C)C(=O)N[C@@H](CC(C)C)C(=O)N[C@@H](CCCCN)C(=O)N[C@@H](CCCNC(=N)N)C(=O)N[C@H](C(=O)N[C@@H](CCCCN)C(=O)N[C@H](C(=O)N[C@@H](CC(C)C)C(=O)N[C@@H](CC(C)C)C(N)=O)[C@@H](C)O)[C@@H](C)CC)nn1)NC(C)=O)C(=O)N[C@@H](CCCCN)C(=O)N[C@H](C(=O)N[C@@H](CC(C)C)C(=O)N[C@@H](CC(C)C)C(N)=O)[C@@H](C)O (I: Ac-[Lys(N3)]GLLKRIKTLL-NH2 / II: Ac-[Pra]GLLKRIKTLL-NH2; triazole I:1-II:1)
HC10 (Erythrocyte): 150 µM
